How the values were obtained:
[1] = tested on: NIH3T3 cells; test: 3T3 growth assay, NIH3T3C7 control cells; format: cell-based; conditions: Mus musculus, NIH3T3, 96 h, Table VI, 10% CS, 4 days
Text: (§1) This example illustrates the ability of the exemplary compounds to inhibit receptor tyrosine kinases, such as HER2 and/or EGFR. The following target cells were used for cellular kinaseassays: NIH3T3 clone C7 (Honegger et al., supra) engineered to over-express human EGF receptor; NIH3T3 cells engineered to over-express a chimeric receptor containing the EGFR extracellular domain and the HER2 intracellular kinase domain; the human mammary carcinoma line BT474 (ATCC HTB2) expressing HER2; and the human glioblastoma line U1242 that expresses PDGFR-β. Growth assays were carried out using human mammary epithelial SKBR3 (ATCC HTB30) cells, SKOV3 (ATCC HTB77) human ovarian cancer cell line, A431 cells, MCF7 human breast carcinoma cells, MCF7 cells overexpress the HER2 kinase (MCF7-HER2), NIH3T3 cells, and NIH3T3 cells overexpressing the HER2 kinase (3T3-HER2).
(§2) The 3T3 growth assay was carried out as follows:
(§3) (1) Dulbecco's Modified Eagle Medium (D-MEM), Gibco 11965-050;
(§4) (4) Fetal Bovine Serum Certified, Gibco 16000-028;
(§5) (5) Dulbecco's Phosphate-Buffered Saline (D-PBS), Gibco 14190-029;
(§6) (6) Sulforhodamine B (SRB), Sigma S-9012. 0.4% SRB in 1% acetic acid;
(§7) (7) 10 mM Tris-base, Fisher BP152-5;
(§8) (8) 10% TCA, Trichloroacetic acid, Fisher A322-500;
(§9) (9) 96-well flat bottom plate (sterile), Corning 08-757-155;
(§10) (10) 100 ml reagent reservoir 9 (sterile), Matrix Technologies Corporation, 8086;
(§11) (11) Sterile pipet tips, Fisher 21-197-8E;
(§12) NIH3T3C7 cells in 10% CS+2 mM GLN DMEM HER2C7 cells in 2% FBS+2 mM GLN DMEM
(§13) (1) HER2C7 (engineered to express HER2) and NIH3T3C7 (as the control) cells are used for this assay. NIH3T3C7 cells are seeded at 2500 cells/well, […] in 10% CS+2 mM GLN DMEM, in a 96 well plate; HER2C7 cells are seeded at 6000 cells/well, 100 μl/well in 2% FBS+2 mM GLN DMEM, in a 96 well plate. Cells are incubated at 37° C., 5% CO2 overnight to allow for cell attachment to the plate;
(§14) (2) The test compound is added to the cells at day 2. The compounds are prepared in the appropriate growth medium (10% CS+2 mM) GLN DMEM for NIH3T3C7 cells; 2% FBS+2 mM GLN DMEM for HER2C7 cells) in a 96 well plate, and serially diluted. A total of 100 μl/well medium of the diluted compounds is added into the cells. The total volume of each well is 200 μl. Quadruplicates (wells) and 11 concentration points are applied to each compound tested.
(§15) (3) After the cells are treated with the compound for 4 days, the cells are washed with PBS and fixed with 200 μl/well ice-cold 10% TCA for one hour at 0-5° C. condition.
(§16) (4) Remove TCA and rinse wells 5 times with deionized water. Dry plates upside down with paper towels. Stain cells with 0.4% SRB at 100 μl/well for 10 minutes.
(§17) (5) Pour off SRB and rinse plate 5 times with 1% acetic acid. Dry plate completely.
(§18) (6) Solubilize the dye with 10 mM Tris-base at 100 μl/well for 10 minutes on a shaker.
(§19) (7) Read the plate at dual wavelengths at 570 nm and 630 nm on Dynatech Elisa plate reader.

[2] = tested on: NIH3T3 cells overexpressing the HER2 kinase (3T3-HER2); test: 3T3 growth assay, HER2C7 cells (3T3-HER2); format: cell-based; conditions: Mus musculus, NIH3T3, 96 h, Table VI, 2% FBS, 4 days
Text: as §1, §2, §3, §4, §5, §6, §7, §8, §9, §10, §11, §12, §13, §14, §15, §16, §17, §18, §19

SMILES | IC50 [1] [µM] | IC50 [2] [µM]
CC(C)(C)c1cc(/C=C(\C#N)C(N)=S)cc(C(C)(C)C)c1O [Compound M11] | 75 | 30
CC(C)(C)c1cc(/C=C(\C#N)C(=O)NCCCc2ccccc2)cc(C(C)(C)C)c1O [Compound M20, (E)-3-(3,5-di-t-Butyl-4-hydroxyphenyl)-2-[(3-phenyl-n-propyl)aminocarbonyl]acrylonitrile] | 90 | 4
CC(C)c1cc(/C=C(\C#N)C(=O)NCCCc2ccccc2)cc(C(C)C)c1O [Compound M21, (E)-3-(3,5-Diisopropyl-4-hydroxyphenyl)-2-[(3-phenyl-n-propyl)aminocarbonyl]acrylonitrile] | > 100 | 70
CC(C)c1cc(/C=C(\C#N)S(=O)(=O)c2ccccn2)cc(C(C)C)c1O [Compound M26] | > 100 | > 100
CC(C)c1cc(/C=C(\C#N)S(=O)(=O)CC#N)cc(C(C)C)c1O [Compound M27] | > 100 | 50
CC(C)c1cc(/C=C(\C#N)S(=O)(=O)/C(C#N)=C/c2cc(C(C)C)c(O)c(C(C)C)c2)cc(C(C)C)c1O [Compound M29] | > 100 | 15
CC(C)c1cc(/C=C(\C#N)S(=O)(=O)c2ccccc2)cc(C(C)C)c1O [Compound M30] | 70 | 12
Cc1cc(/C=C(\C#N)S(=O)(=O)c2ccccc2)cc(C)c1O [Compound M31] | > 100 | > 100
Cc1cc(/C=C(\C#N)S(=O)(=O)c2ccccn2)cc(C)c1O [Compound M32] | > 100 | 80
CC(C)(C)c1cc(/C=C(\C#N)S(=O)(=O)c2ccccc2)cc(C(C)(C)C)c1O [Compound M33, (E)-3-(3,5-di-t-Butyl-4-hydroxyphenyl)-2-(phenylsulfonyl)acrylonitrile] | 35 | 9
CC(C)(C)c1cc(/C=C(\C#N)S(=O)(=O)c2ccccn2)cc(C(C)(C)C)c1O [Compound M34, (E)-3-(3,5-di-t-Butyl-4-hydroxyphenyl)-2-[(pyrid-2-yl)sulfonyl]acrylonitrile] | 40 | 5.5
CC(C)(C)c1cc(/C=C(\C#N)C(=O)Nc2ccc(C(F)(F)F)cc2)cc(C(C)(C)C)c1O [Compound M35, (E)-3-(3,5-di-t-Butyl-4-hydroxyphenyl)-2-[(4-trifluoromethyl)phenylaminocarbonyl]acrylonitrile] | 18 | 0.25

Source: patent publication US6596878B2, “Methods and compositions for inhibiting cell proliferative disorders” (Yissum Research & Development Company of the Hebrew …, priority 1994, dated 2003)
